# Measurements reported in US7846928B2, “Substituted pyrazolopyridines and salts thereof, pharmaceutical compositions comprising same, methods of preparing same and uses of same” (Bayer Schering Pharma AG, priority 2006, dated 2010).
# What was measured:
# Tie2 [1] = biological target: T1, Tie2 (Homo sapiens, UniProt Q02763); assay: Tie2 ELISA assay (assay 1): cellular Tie2 autophosphorylation in Tie2-transfected CHO cells stimulated by angiopoietin-2; assay type: cell-based; set-up: expressed in transfected cells; host or cells: CHO (DHFR-deficient), stably transfected: CHO Tie2/DHFR; settings: CHO Tie2/DHFR cells, Ang2 stimulated, Tie2 autophosphorylation sandwich-ELISA; pIC50 = -log IC50 molar; read-out: Tie 2 activity (assay 1)
# Description: Cellular activity of compounds of the present invention as inhibitors of Tie2 kinase activity was measured employing a Tie2 ELISA assay as described in the following paragraphs. Herein CHO cell-cultures, which are stably transfected by known techniques with Tie2 using DHFR deficiency as selection marker, are stimulated by angiopoietin-2. The specific autophosphorylation of Tie2 receptors is quantified with a sandwich-ELISA using anti-Tie2 antibodies for catch and anti-phosphotyrosine antibodies coupled to HRP for detection.
# • 96 well tissue culture plate, sterile, Greiner • 96 well FluoroNunc plate MaxiSorp Surface C, Nunc • 96 well plate polypropylene for compound dilution in DMSO • CHO Tie2/DHFR (transfected cells) • PBS−; PBS++, DMSO • MEM alpha Medium with Glutamax-I without Ribonucleosides and • Deoxyribonucleosides (Gibco #32561-029) • with 10% FCS after dialysis! and 1% PenStrep • Lysis buffer: 1 Tablet “Complete” protease inhibitor • 1 cap Vanadate (1 mL>40 mg/mL; working solution 2 mM) • ad 50 mL with Duschl-Puffer • pH 7.6 • Anti-Tie2-antibody 1:425 in Coating Buffer pH 9.6 • Stock solution: 1.275 mg/mL>working: 3 μg/mL • PBST: 2 bottles PBS(10×)+10 ml Tween, fill up with VE-water • RotiBlock 1:10 in VE-water • Anti-Phosphotyrosine HRP-Conjugated 1:10000 in 3% TopBlock • 3% TopBlock in PBST • BM Chemiluminescence ELISA Substrate (POD) • solution B1:100 solution A • SF9 cell culture medium • Ang2-Fc in SF9 cell culture medium Cell Experiment: • Dispense 5×10^4 cells/well/98 μL in 96 well tissue culture plate • Incubate at 37° C./5% CO2 • After 24 h add compounds according to desired concentrations • Add also to control and stimulated values without compounds 2 μL DMSO • And mix for a few min at room temperature • Add 100 μL Ang2-Fc to all wells except control, which receives insect medium • Incubate 20 min at 37° C. • Wash 3× with PBS++ • Add 100 μl Lysis buffer/well and shake a couple of min at room temperature • Store lysates at 20° C. before utilizing for the ELISA Performance of Sandwich-ELISA • Coat 96 well FluoroNunc Plate MaxiSorp Surface C with anti-Tie2 mAb • 1:425 in Coating buffer pH 9.6; 100 μL/well overnight at 4° C. • Wash 2× with PBST • Block plates with 250 μL/well RotiBlock 1:10 in VE-water • Incubate for 2 h at room temperature or overnight at 4° C. shaking • Wash 2× in PBST • Add thawed lysates to wells and incubate overnight shaking at 4° C. • Wash 2× with PBST • Add 100 μL/well anti-Phosphotyrosine HRP-Conjugated 1:10000 in 3% • TopBlock (3% TopBlock in PBST) and incubate overnight under shaking • Wash 6× with PBST • Add 100 μL/well BM Chemiluminescence ELISA Substrate (POD) • solutions 1 und 2 (1:100) • Determine luminescence with the LumiCount. Assay 2: Tie-2-Kinase HTRF-Assay without Kinase Preactivation
# Target sequence in this assay (Q02763 23-1124): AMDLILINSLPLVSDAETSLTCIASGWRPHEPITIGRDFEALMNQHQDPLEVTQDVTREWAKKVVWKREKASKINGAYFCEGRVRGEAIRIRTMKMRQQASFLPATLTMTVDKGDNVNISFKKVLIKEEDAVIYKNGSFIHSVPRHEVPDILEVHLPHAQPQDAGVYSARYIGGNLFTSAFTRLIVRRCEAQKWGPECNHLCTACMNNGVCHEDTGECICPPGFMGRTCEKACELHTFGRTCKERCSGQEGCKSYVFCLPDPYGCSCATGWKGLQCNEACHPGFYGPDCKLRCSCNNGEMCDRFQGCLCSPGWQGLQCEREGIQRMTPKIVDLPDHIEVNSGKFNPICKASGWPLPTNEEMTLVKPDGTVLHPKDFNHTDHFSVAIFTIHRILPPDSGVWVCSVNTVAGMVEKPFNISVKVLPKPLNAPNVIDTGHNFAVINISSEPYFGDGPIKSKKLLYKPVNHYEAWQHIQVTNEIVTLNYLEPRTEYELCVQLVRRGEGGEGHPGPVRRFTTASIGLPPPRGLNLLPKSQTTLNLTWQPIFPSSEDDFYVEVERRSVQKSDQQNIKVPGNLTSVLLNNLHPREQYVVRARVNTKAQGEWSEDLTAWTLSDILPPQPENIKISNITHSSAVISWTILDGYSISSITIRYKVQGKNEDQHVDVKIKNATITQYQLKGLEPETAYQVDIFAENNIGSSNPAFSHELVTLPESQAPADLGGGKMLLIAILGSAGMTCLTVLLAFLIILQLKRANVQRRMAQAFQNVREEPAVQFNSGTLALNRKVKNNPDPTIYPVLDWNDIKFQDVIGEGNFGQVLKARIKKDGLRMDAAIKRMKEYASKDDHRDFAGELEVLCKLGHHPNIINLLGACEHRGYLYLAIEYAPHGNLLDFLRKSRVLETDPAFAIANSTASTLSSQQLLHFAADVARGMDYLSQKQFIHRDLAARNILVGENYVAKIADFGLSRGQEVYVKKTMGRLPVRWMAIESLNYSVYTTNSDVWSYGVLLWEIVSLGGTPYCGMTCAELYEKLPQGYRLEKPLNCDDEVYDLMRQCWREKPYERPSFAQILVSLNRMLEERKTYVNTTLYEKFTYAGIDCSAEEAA
# Tie2 [2] = biological target: T1, Tie2; assay: Tie-2-Kinase HTRF-Assay without kinase preactivation (assay 2); assay type: biochemical; set-up: fusion protein of GST and the intracellular domains of Tie-2; GST; made in house; host or cells: insect cells (Hi-5); settings: GST-Tie-2 without preactivation, 10 μM ATP; pIC50 = -log IC50 molar
# Description: Tie2-inhibitory activity of compounds of the present invention was quantified employing two Tie2 HTRF assay as described in the following paragraphs.
# A recombinant fusion protein of GST and the intracellular domains of Tie-2, expressed in insect cells (Hi-5) and purified by Glutathion-Sepharose affinity chromatography was used as kinase. Alternatively, commercially available GST-Tie2-fusion protein (Upstate Biotechnology, Dundee, Scotland) can be used As substrate for the kinase reaction the biotinylated peptide biotin-Ahx-EPKDDAYPLYSDFG (C-terminus in amid form) was used which can be purchased e.g. from the company Biosynthan GmbH (Berlin-Buch, Germany). Detection of phosphorylated product is achieved specifically by a trimeric detection complex consisting of the phosphorylated substrate, streptavidin-XLent (SA-XLent) which binds to biotin, and Europium Cryptate-labeled anti-phosphotyrosine antibody PT66 which binds to phosphorylated tyrosine.
# Tie-2 (3.5 ng/measurement point) was incubated for 60 min at 22° C. in the presence of 10 μM adenosine-tri-phosphate (ATP) and 1 μM substrate peptide (biotin-Ahx-EPKDDAYPLYSDFG-NH2) with different concentrations of test compounds (0 μM and concentrations in the range 0.001-20 μM) in 5 μl assay buffer [50 mM Hepes/NaOH pH 7, 10 mM MgCl2, 0.5 mM MnCl2, 1.0 mM dithiothreitol, 0.01% NP40, protease inhibitor mixture (“Complete w/o EDTA” from Roche, 1 tablet per 2.5 ml), 1% (v/v) dimethylsulfoxide]. The reaction was stopped by the addition of 5 μl of an aqueous buffer (25 mM Hepes/NaOH pH 7.5, 0.28% (w/v) bovine serum albumin) containing EDTA (90 mM) and the HTRF (Homogeneous Time Resolved Fluorescence) detection reagents streptavidine-XLent (0.2 μM, from Cis Biointernational, Marcoule, France) and PT66-Eu-Chelate (0.3 ng/μl; a europium-chelate labelled anti-phospho-tyrosine antibody from Perkin Elmer).
# The resulting mixture was incubated 1 h at 22° C. to allow the binding of the biotinylated phosphorylated peptide to the streptavidine-XLent and the PT66-Eu-Chelate. Subsequently the amount of phosphorylated substrate peptide was evaluated by measurement of the resonance energy transfer from the PT66-Eu-Chelate to the streptavidine-XLent. Therefore, the fluorescence emissions at 620 nm and 665 nm after excitation at 350 nm was measured in a HTRF reader, e.g. a Rubystar (BMG Labtechnologies, Offenburg, Germany) or a Viewlux (Perkin-Elmer). The ratio of the emissions at 665 nm and at […] was taken as the measure for the amount of phosphorylated substrate peptide. The data were normalised (enzyme reaction without inhibitor=0% inhibition, all other assay components but no enzyme=100% inhibition) and IC50 values were calculated by a 4 parameter fit using an inhouse software.
# Target sequence in this assay (Q02763 770-1124 limits assumed): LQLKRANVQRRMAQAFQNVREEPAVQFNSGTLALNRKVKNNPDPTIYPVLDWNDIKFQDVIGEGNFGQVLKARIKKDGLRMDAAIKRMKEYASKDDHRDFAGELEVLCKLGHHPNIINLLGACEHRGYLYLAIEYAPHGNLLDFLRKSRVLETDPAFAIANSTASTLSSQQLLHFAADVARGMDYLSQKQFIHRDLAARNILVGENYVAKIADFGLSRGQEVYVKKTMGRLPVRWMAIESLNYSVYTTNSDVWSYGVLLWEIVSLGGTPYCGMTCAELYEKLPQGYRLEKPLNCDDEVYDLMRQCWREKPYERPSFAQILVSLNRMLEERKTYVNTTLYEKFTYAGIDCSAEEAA
Structure (SMILES),melting point [°C],IC50 (Tie2 [1]) [nM],IC50 (Tie2 [2]) [nM]
"Cc1cc(-c2ccc(NC(=O)Nc3cc(C(F)(F)F)ccc3N3CCCC3)cc2)c2cnn(C)c2n1 [2.8, 1-[4-(1,6-Dimethyl-1H-pyrazolo[3,4-b]pyridin-4-yl)-phenyl]-3-(2-pyrrolidin-1-yl-5-trifluoromethyl-phenyl)-urea]",236,,
"Cn1ncc2c(-c3ccc(NC(=O)Nc4cccc(C(F)(F)F)c4)cc3)cc(C3(C(=O)N4CCCC4)CC3)nc21 [1.27, 1-(4-{1-Methyl-6-[1-(pyrrolidine-1-carbonyl)-cyclopropyl]-1H-pyrazolo[3,4-b]pyridin-4-yl}-phenyl)-3-(3-trifluoromethyl-phenyl)-urea]",,< 501,< 501
"CC(C)c1cc(-c2ccc(NC(=O)Nc3cccc(C(F)(F)F)c3)cc2)c2cnn(CCCN3CCOCC3)c2n1 [1.25, 1-{4-[6-Isopropyl-1-(3-morpholin-4-yl-propyl)-1H-pyrazolo[3,4-b]pyridin-4-yl]-phenyl}-3-(3-trifluoromethyl-phenyl)-urea]",,< 501,1000 to 10000
